{"source": "PubChem BioAssay AID977614", "about": "(Broad Institute, 2014)", "note": "The source made the active and inactive calls.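 The calls were made as follows: active = parasite count per well reduced by over 3 SD from the mean, with host cell number above 80% of untreated; inactive = the rest.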", "data": [{"tested_on": "L. donovani amastigotes in THP-1 macrophages, DAPI imaging, 72 h", "assay": "L. donovani intracellular amastigote growth inhibitors, imaging, THP-1 host macrophages, single concentration (AID 977614);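 also: signal is the parasite per host cell ratio from DAPI stained kinetoplasts and nuclei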", "values": [{"smiles": "C/C=C/c1ccc([C@@H]2[C@H](CO)N[C@H]2CN(CC(C)C)C(=O)c2ccccn2)cc1", "AC50": "> 10 µM (inactive)"}, {"smiles": "Cc1cccc(S(=O)(=O)N2C[C@H]3[C@@H](c4ccccc42)[C@@H](CO)N3CC2CCCC2)c1", "AC50": "> 10 µM (inactive)"}, {"smiles": "O=C(CC(F)(F)F)N1C[C@@H]2[C@H](c3ccccc31)[C@@H](CO)N2C(=O)c1ccncc1", "AC50": "> 10 µM (inactive)"}, {"smiles": "CCCNC(=O)N1C[C@@H]2[C@H](c3ccccc31)[C@@H](CO)N2Cc1cccc(OC)c1", "AC50": "> 10 µM (inactive)"}, {"smiles": "O=S(=O)(NC[C@@H]1[C@H](c2ccccc2)[C@H](CO)N1CC1CC1)c1ccccc1", "AC50": "> 10 µM (inactive)"}, {"smiles": "O=S(=O)(c1ccccc1)N1[C@@H](CO)[C@@H]2c3ccccc3NC[C@@H]21", "AC50": "> 10 µM (inactive)"}, {"smiles": "CN(C[C@@H]1N[C@H](CO)[C@H]1c1ccccc1)C(=O)c1ccccn1", "AC50": "> 10 µM (inactive)"}, {"smiles": "O=C(C1CC1)N1C[C@H]2[C@@H](c3ccccc31)[C@@H](CO)N2C(=O)c1ccccc1", "AC50": "> 10 µM (inactive)"}, {"smiles": "O=C(NC[C@H]1[C@H](c2ccccc2)[C@@H](CO)N1Cc1ccccn1)C1CCCC1", "AC50": "> 10 µM (inactive)"}, {"smiles": "CC(=O)N1[C@@H](CO)[C@@H](c2ccccc2)[C@@H]1CN(CC(C)C)C(=O)c1ccccn1", "AC50": "> 10 µM (inactive)"}, {"smiles": "C[C@@H]1CN([C@@H](C)CO)C(=O)CCCn2cc(nn2)CO[C@H]1CN(C)C(=O)c1ccc(N2CCN(C)CC2)cc1", "AC50": "> 10 µM (inactive)"}, {"smiles": "C[C@@H]1CN([C@@H](C)CO)C(=O)CCCn2cc(nn2)CO[C@@H]1CN(C)Cc1ccccc1", "AC50": "> 10 µM (inactive)"}, {"smiles": "C/C=C/c1ccc([C@H]2[C@@H](CO)N(CC3CCCC3)[C@H]2CNS(C)(=O)=O)cc1", "AC50": "> 10 µM (inactive)"}, {"smiles": "C[C@@H]1CN([C@H](C)CO)C(=O)CCCn2nncc2CO[C@H]1CN(C)Cc1cccc2c1OCCCO2", "AC50": "> 10 µM (inactive)"}, {"smiles": "C[C@@H]1CN([C@@H](C)CO)C(=O)CCCn2nncc2CO[C@@H]1CN(C)Cc1ccc(C(=O)Nc2ccccc2N)cc1", "AC50": "> 10 µM (inactive)"}, {"smiles": "O=C(NC[C@@H]1[C@H](c2ccccc2)[C@@H](CO)N1C(=O)Cc1ccncc1)C1CCC1", "AC50": "> 10 µM (inactive)"}, {"smiles": "O=C(NC[C@@H]1[C@@H](c2ccccc2)[C@H](CO)N1Cc1ccccn1)C1CCCC1", "AC50": "> 10 µM (inactive)"}, {"smiles": "COCC(=O)N1[C@H](CO)[C@H]2c3ccccc3N(C)C[C@H]21", "AC50": "> 10 µM (inactive)"}, {"smiles": "CC(C)NC(=O)N1[C@@H](CO)[C@@H]2c3ccccc3NC[C@@H]21", "AC50": "> 10 µM (inactive)"}, {"smiles": "O=C(NC[C@H]1[C@H](c2ccccc2)[C@H](CO)N1C(=O)Cc1ccncc1)C1CCC1", "AC50": "> 10 µM (inactive)"}, {"smiles": "O=C(c1ccc2c(c1)OCO2)N1C[C@@H]2[C@H](c3ccccc31)[C@@H](CO)N2C(=O)CC1CC1", "AC50": "> 10 µM (inactive)"}, {"smiles": "Cc1noc(C)c1S(=O)(=O)N(C)C[C@H]1OCc2cnnn2CCCC(=O)N([C@@H](C)CO)C[C@H]1C", "AC50": "> 10 µM (inactive)"}, {"smiles": "CCNC[C@@H]1[C@@H](c2ccccc2)[C@@H](CO)N1C(=O)Cc1ccccn1", "AC50": "> 10 µM (inactive)"}, {"smiles": "O=C(CC(F)(F)F)N1C[C@H]2[C@@H](c3ccccc31)[C@@H](CO)N2Cc1cccnc1", "AC50": "> 10 µM (inactive)"}, {"smiles": "CN1[C@H](CO)[C@H]2c3ccccc3N(C(=O)Nc3cc(F)ccc3F)C[C@H]21", "AC50": "> 10 µM (inactive)"}, {"smiles": "CCN(C[C@H]1[C@H](c2ccccc2)[C@@H](CO)N1C(=O)COC)S(C)(=O)=O", "AC50": "> 10 µM (inactive)"}, {"smiles": "CCC(=O)N(C)C[C@@H]1[C@@H](c2ccccc2)[C@H](CO)N1Cc1cccnc1", "AC50": "> 10 µM (inactive)"}, {"smiles": "C[C@H](CO)N1C[C@H](C)[C@H](CN(C)CC2CCCCC2)OCc2cnnn2CCCC1=O", "AC50": "> 10 µM (inactive)"}, {"smiles": "O=C(Nc1ccc(F)cc1)N1C[C@H]2[C@@H](c3ccccc31)[C@@H](CO)N2C(=O)c1ccncc1", "AC50": "> 10 µM (inactive)"}, {"smiles": "O=C(c1cnccn1)N1C[C@H]2[C@@H](c3ccccc31)[C@@H](CO)N2CC1CCCC1", "AC50": "> 10 µM (inactive)"}, {"smiles": "O=C(c1ccccc1)N1C[C@@H]2[C@H](c3ccccc31)[C@H](CO)N2Cc1ccccn1", "AC50": "> 10 µM (inactive)"}]}]}
